From ChEMBL document CHEMBL4118163, “Identification and preliminary structure-activity relationship studies of novel pyridyl sulfonamides as potential Chagas disease therapeutic agents” (Bioorg Med Chem Lett, 2018)

Legend:
[1] = test system: Trypanosoma cruzi; experiment: Antitrypanosomal activity against Trypanosoma cruzi Tulahuen amastigotes infected in mouse L929 cells assessed as reduction in infection level at 10 uM after 96 hrs by beta galactosidase reporter assay relative to control; type: functional; settings: L929, 96 h
[2] = Cytotoxicity against mouse L929 cells assessed as reduction in cell viability after 96 hrs by alamar blue assay; type: cell-based; settings: read-out: LC50
[3] = Selectivity index, ratio of LC50 for mouse L929 cells to EC50 for Trypanosoma cruzi Tulahuen amastigotes; type: toxicity; settings: read-out: Selectivity Index
[4] = test system: Trypanosoma cruzi; experiment: Antitrypanosomal activity against Trypanosoma cruzi Tulahuen amastigotes infected in mouse L929 cells after 96 hrs by beta galactosidase reporter assay; type: functional, organism-based; settings: L929, 96 h
[5] = Cytotoxicity against Swiss Webster mouse cardiomyocyte assessed as reduction in cell viability after 24 hrs by PrestoBlue assay; parameters: species or system Cardiac Muscle Cell; settings: cardiomyocytes, read-out: LC50
[6] = test system: Trypanosoma cruzi; experiment: Antitrypanosomal activity against bloodstream trypomastigote stage of Trypanosoma cruzi Y infected in Swiss Webster mouse cardiac cells after 24 hrs; type: functional, organism-based
[7] = test system: Trypanosoma cruzi; experiment: Antitrypanosomal activity against Trypanosoma cruzi Silvio X10/7 intracellular forms; type: functional, organism-based
[8] = test system: Vero; experiment: Cytotoxic activity against African green monkey Vero cells; type: cell-based; settings: Chlorocebus sabaeus
[9] = Selectivity index, ratio of LC50 for Swiss Webster mouse cardiac cells to EC50 for bloodstream trypomastigote stage of Trypanosoma cruzi Y; type: toxicity; settings: read-out: Selectivity Index

SMILES	inhibition at 10 µM [1] [%]	CC50 at 96 h [2] [µM]	selectivity ratio [3]	EC50 [4] [µM]	CC50 at 24 h [5] [µM]	EC50 [6] [µM]	EC50 [7] [µM]	EC50 [8] [µM]	selectivity ratio [9]
COc1ccc(S(=O)(=O)NCc2ccccn2)c(C)c1C	7.2	> 200							
CCOc1ccc(S(=O)(=O)NCc2cccnc2)c2ccccc12	1.1	> 200							
CCOc1ccc(S(=O)(=O)Nc2ccncc2)c(C)c1C	3.6	> 200							
CCOc1ccc(S(=O)(=O)NCc2ccccn2)c(C)c1C	3.6	> 200							
COc1ccc(S(=O)(=O)NCc2cccnc2)c2ccccc12	28	> 200							
COc1c(C)cc(S(=O)(=O)Nc2cccnc2)c(C)c1C	2.1	> 200							
CCCOc1cc(C)c(S(=O)(=O)Nc2cccnc2)cc1C	78	> 200	> 15	13.2	> 100	> 50			
CCOc1ccc(S(=O)(=O)Nc2cccnc2)cc1CC	3	> 200							
COc1ccc(S(=O)(=O)Nc2ccc(Cc3ccncc3)cc2)c2ccccc12	0	> 200							
COc1ccc2cc(S(=O)(=O)Nc3cccnc3)ccc2c1	41.1	> 200	> 36	5.44	> 100	> 50			
CCOc1ccc(S(=O)(=O)Nc2cccnc2)c(C)c1C	62	> 200	> 13.5	14.8	> 100	> 50			
CCOc1ccc(S(=O)(=O)Nc2cccnc2)cc1C(C)(C)C	1.9	> 200							
CCOc1ccc(S(=O)(=O)NCc2ccncc2)c(C)c1C	65	> 200	> 23	8.62	> 100	> 50			
COc1cc(C)c(S(=O)(=O)Nc2cccnc2)cc1C(C)C	26.7	> 200							
CCOc1ccc(S(=O)(=O)Nc2cccnc2)c2ccccc12		> 400		> 25			5.5	50	
CCOc1ccc(S(=O)(=O)Nc2ccncc2)c2ccccc12	0.1	> 200							
O=C(Cn1ccnc1[N+](=O)[O-])NCc1ccccc1 [BENZNIDAZOLE]	89.3	> 400	> 114	3.51	> 1000	11.2			> 89
CC1CS(=O)(=O)CCN1/N=C/c1ccc([N+](=O)[O-])o1 (centres undefined) [NIFURTIMOX]							0.9	50	
